From ChEMBL document CHEMBL4825682, “Discovery of novel purinylthiazolylethanone derivatives as anti-Candida albicans agents through possible multifaceted mechanisms” (Eur J Med Chem, 2021)
≈ marks a conversion by molar mass, not a printed value. Values belong to the compound of their own block, whether it stands above or below them. Calls of active or inactive are those of the source. The calls are words filed in the database; no cut-off is given here.

Experiments:
[1] = Hemolytic activity in human RBC; assay type: cell-based, Erythrocyte; conditions: human red blood cells (erythrocytes)
Candida albicans [2] = assay: Antifungal activity against Candida albicans ATCC 90023 assessed as fungal growth inhibition by CLSI protocol based microbroth dilution method; assay type: functional
Candida tropicalis [3] = assay: Antifungal activity against Candida tropicalis assessed as fungal growth inhibition by CLSI protocol based microbroth dilution method; assay type: functional
Candida parapsilosis = assay: Antifungal activity against Candida parapsilosis ATCC 22019 assessed as fungal growth inhibition by CLSI protocol based microbroth dilution method; assay type: functional; conditions: Lodderomyces parapsilosis
Aspergillus fumigatus = assay: Antifungal activity against Aspergillus fumigatus assessed as fungal growth inhibition by CLSI protocol based microbroth dilution method; assay type: functional
Candida albicans [4] = assay: Antifungal activity against Candida albicans assessed as fungal growth inhibition by CLSI protocol based microbroth dilution method; assay type: functional
Candida albicans [5] = assay: Induction of oxidative stress in Candida albicans assessed as increase in ROS generation by […] probe based assay; assay type: functional, organism-based
Cell membrane [6] = assay: Induction of cell membrane destruction in Candida albicans assessed as reduction in LDH activity at MIC relative to control; assay type: subcellular; set-up: scale not given: the % may be the effect or the level left
Candida albicans [7] = assay: Antifungal activity against Candida albicans assessed as reduction in metabolic activity at 0.5 to 6 times MIC by resazurin assay; assay type: functional, organism-based
[8] = Hemolytic activity in human RBC at MIC relative to control; assay type: ADME, cell-based, Erythrocyte; conditions: human red blood cells (erythrocytes), read-out: Activity
L02 [9] = assay: Cytotoxicity against human L02 cells assessed as increase in cell viability measured after 72 hrs by CCK8 assay relative to control; assay type: cell-based; conditions: l02, 72 h
Candida albicans [10] = assay: Potentiation of fluconazole-induced antifungal activity against Candida albicans assessed as fluconazole MIC (reference value: […] ug/ml); assay type: functional
Cell membrane [11] = assay: Induction of cell membrane destruction in Candida albicans assessed as reduction in LDH activity at 4 times MIC relative to control; assay type: subcellular; set-up: scale not given: the % may be the effect or the level left
Candida tropicalis [12] = assay: Potentiation of fluconazole-induced antifungal activity against Candida tropicalis assessed as fluconazole MIC (reference value: […] ug/ml); assay type: functional
Cell wall [13] = assay: Induction of cell wall damage in Aspergillus fumigatus; assay type: subcellular
Cell membrane [14] = assay: Induction of cell membrane disruption in Candida albicans assessed as increase in protein leakage by Bradford assay; assay type: subcellular
Candida albicans [15] = assay: Synergistic antifungal activity against Candida albicans assessed as fractional inhibitory concentration index in presence of fluconazole; assay type: functional
L02 [16] = assay: Cytotoxicity against human L02 cells at 100 ug/ml measured after 72 hrs by CCK8 assay; assay type: cell-based; conditions: l02, 72 h, dose 100 µg/ml
Cell membrane [17] = assay: Induction of cytoplasmic membrane depolarization in Candida albicans by diSC3(5)-dye based assay; assay type: subcellular
Candida albicans [18] = assay: Antibiofilm activity against Candida albicans assessed as inhibition of biofilm formation at 0.5 to 5 times MIC by Alamar blue assay; assay type: functional, organism-based
Candida albicans [19] = assay: Induction of reactive nitrogen species generation in Candida albicans assessed as increase in NO level at 6 times MIC by Greiss reagent assay relative to control; assay type: functional
Candida tropicalis [20] = assay: Additive antifungal activity against Candida tropicalis assessed as fractional inhibitory concentration index in presence of fluconazole; assay type: functional
[21] = Hemolytic activity in human RBC at 8 times MIC relative to control; assay type: ADME, cell-based, Erythrocyte; conditions: human red blood cells (erythrocytes), read-out: Activity
Cell wall [22] = assay: Induction of cell wall damage in Candida tropicalis; assay type: subcellular
Candida albicans [23] = assay: Antifungal activity against Candida albicans measured after 16 passages; assay type: functional, organism-based
Cell wall [24] = assay: Induction of cell wall damage in Candida albicans; assay type: subcellular
Cell membrane [25] = assay: Induction of cell membrane permeabilization in Candida albicans up to 6 times MIC by propidium iodide staining based fluorescence assay; assay type: subcellular
Candida albicans [26] = assay: Induction of oxidative stress in Candida albicans assessed as decrease in cellular GSH level; assay type: functional, organism-based

SMILES: CCOC(=O)CN1CCN(c2ncnc3c2ncn3CC(=O)c2nccs2)CC1
Activity (Candida albicans [5]): Dose-Dependent Effect
Activity (Cell membrane [6]): 30%
Activity (Candida albicans [7]): Active
hemolysis at 1 x MIC [8]: 2.6%
HC50 [1]: > 256 µg/mL
Activity (L02 [9]): > 60%
MIC (Candida albicans [10]): 0.0625 µg/mL
Activity (Cell membrane [11]): 50%
MIC (Candida tropicalis [12]): 8 µg/mL
MIC (Candida albicans [2]): 16 µg/mL (≈ 38.5 µM)
MIC (Candida tropicalis [3]): 8 µg/mL (≈ 19.3 µM)
Activity (Cell wall [13]): inactive
Activity (Cell membrane [14]): Dose-Dependent Effect
fractional inhibitory concentration index (FICI) (Candida albicans [15]): 0.56
MIC (Candida parapsilosis): 8 µg/mL (≈ 19.3 µM)
Activity (L02 [16]): Toxic
Activity (Cell membrane [17]): Active
inhibition (Candida albicans [18]): Active
MIC (Aspergillus fumigatus): 16 µg/mL (≈ 38.5 µM)
fold change (FC) (Candida albicans [19]): 3.6
fractional inhibitory concentration index (FICI) (Candida tropicalis [20]): 1.02
hemolysis at 8 x MIC [21]: 3.8%
MIC (Candida albicans [4]): 1 µg/mL (≈ 2.41 µM)
Activity (Cell wall [22]): Active
Activity (Candida albicans [23]): Active
Activity (Cell wall [24]): Active
Activity (Cell membrane [25]): Active
Activity (Candida albicans [26]): Active

SMILES: O=C(Cn1cnc2c(N3CCN(CCO)CC3)ncnc21)c1nccs1
HC50 [1]: > 256 µg/mL
MIC (Candida albicans [2]): 256 µg/mL (≈ 686 µM)
MIC (Candida tropicalis [3]): 64 µg/mL (≈ 171 µM)
MIC (Candida parapsilosis): 128 µg/mL (≈ 343 µM)
MIC (Aspergillus fumigatus): 64 µg/mL (≈ 171 µM)
MIC (Candida albicans [4]): 1 µg/mL (≈ 2.68 µM)

SMILES: O=C(Cn1cnc2c(N3CCN(Cc4ccccc4Cl)CC3)ncnc21)c1nccs1
HC50 [1]: > 256 µg/mL
MIC (Candida albicans [2]): 2 µg/mL (≈ 4.41 µM)
MIC (Candida tropicalis [3]): 256 µg/mL (≈ 564 µM)
MIC (Candida parapsilosis): 256 µg/mL (≈ 564 µM)
MIC (Aspergillus fumigatus): 64 µg/mL (≈ 141 µM)
MIC (Candida albicans [4]): 256 µg/mL (≈ 564 µM)

SMILES: CCN1CCN(c2ncnc3c2ncn3CC(=O)c2nccs2)CC1
HC50 [1]: > 256 µg/mL
MIC (Candida albicans [2]): 16 µg/mL (≈ 44.8 µM)
MIC (Candida tropicalis [3]): 16 µg/mL (≈ 44.8 µM)
MIC (Candida parapsilosis): 256 µg/mL (≈ 716 µM)
MIC (Aspergillus fumigatus): 32 µg/mL (≈ 89.5 µM)
MIC (Candida albicans [4]): 32 µg/mL (≈ 89.5 µM)

SMILES: CCOC(=O)CN1CCN(c2ncnc3c2ncn3CC(O)c2nccs2)CC1 (centres undefined)
HC50 [1]: > 256 µg/mL
MIC (Candida albicans [2]): 64 µg/mL (≈ 153 µM)
MIC (Candida tropicalis [3]): 64 µg/mL (≈ 153 µM)
MIC (Candida parapsilosis): 128 µg/mL (≈ 307 µM)
MIC (Aspergillus fumigatus): 32 µg/mL (≈ 76.6 µM)
MIC (Candida albicans [4]): 128 µg/mL (≈ 307 µM)

SMILES: N#CCN(CC#N)C(=O)CN1CCN(c2ncnc3c2ncn3CC(=O)c2nccs2)CC1
HC50 [1]: > 256 µg/mL
MIC (Candida albicans [2]): 32 µg/mL (≈ 68.9 µM)
MIC (Candida tropicalis [3]): 64 µg/mL (≈ 138 µM)
MIC (Candida parapsilosis): 128 µg/mL (≈ 276 µM)
MIC (Aspergillus fumigatus): 64 µg/mL (≈ 138 µM)
MIC (Candida albicans [4]): 16 µg/mL (≈ 34.4 µM)

SMILES: N#CCN1CCN(c2ncnc3c2ncn3CC(=O)c2nccs2)CC1
HC50 [1]: > 256 µg/mL
MIC (Candida albicans [2]): 256 µg/mL (≈ 695 µM)
MIC (Candida tropicalis [3]): 4 µg/mL (≈ 10.9 µM)
MIC (Candida parapsilosis): 8 µg/mL (≈ 21.7 µM)
MIC (Aspergillus fumigatus): 16 µg/mL (≈ 43.4 µM)
MIC (Candida albicans [4]): 8 µg/mL (≈ 21.7 µM)

More lines, in order of falling MIC (Candida albicans [2]), values ahead:

MIC (Candida albicans [2]): 256 µg/mL (≈ 465 µM)
MIC (Candida tropicalis [3]): 16 µg/mL (≈ 29.1 µM)
MIC (Candida parapsilosis): 16 µg/mL (≈ 29.1 µM)
MIC (Aspergillus fumigatus): 32 µg/mL (≈ 58.1 µM)
MIC (Candida albicans [4]): 8 µg/mL (≈ 14.5 µM)
SMILES: O=C(Cn1cnc2c(N3CCN(CC(=O)N(C4CCCCC4)C4CCCCC4)CC3)ncnc21)c1nccs1
HC50 [1]: > 256 µg/mL

MIC (Candida albicans [2]): 256 µg/mL (≈ 780 µM)
MIC (Candida tropicalis [3]): 64 µg/mL (≈ 195 µM)
MIC (Candida parapsilosis): 64 µg/mL (≈ 195 µM)
MIC (Aspergillus fumigatus): 128 µg/mL (≈ 390 µM)
MIC (Candida albicans [4]): 1 µg/mL (≈ 3.05 µM)
SMILES: O=C(Cn1cnc2c(N3CCCCC3)ncnc21)c1nccs1
HC50 [1]: > 256 µg/mL

MIC (Candida albicans [2]): 256 µg/mL (≈ 585 µM)
MIC (Candida tropicalis [3]): 64 µg/mL (≈ 146 µM)
MIC (Candida parapsilosis): 256 µg/mL (≈ 585 µM)
MIC (Aspergillus fumigatus): 32 µg/mL (≈ 73.1 µM)
MIC (Candida albicans [4]): 32 µg/mL (≈ 73.1 µM)
SMILES: O=C(Cn1cnc2c(N3CCN(Cc4ccc(F)cc4)CC3)ncnc21)c1nccs1
HC50 [1]: > 256 µg/mL

MIC (Candida albicans [2]): 128 µg/mL (≈ 295 µM)
MIC (Candida tropicalis [3]): 64 µg/mL (≈ 148 µM)
MIC (Candida parapsilosis): 64 µg/mL (≈ 148 µM)
MIC (Aspergillus fumigatus): 64 µg/mL (≈ 148 µM)
MIC (Candida albicans [4]): 16 µg/mL (≈ 36.9 µM)
SMILES: Cc1ccc(CN2CCN(c3ncnc4c3ncn4CC(=O)c3nccs3)CC2)cc1
HC50 [1]: > 256 µg/mL

MIC (Candida albicans [2]): 128 µg/mL (≈ 282 µM)
MIC (Candida tropicalis [3]): 4 µg/mL (≈ 8.81 µM)
MIC (Candida parapsilosis): 64 µg/mL (≈ 141 µM)
MIC (Aspergillus fumigatus): 64 µg/mL (≈ 141 µM)
MIC (Candida albicans [4]): 32 µg/mL (≈ 70.5 µM)
SMILES: O=C(Cn1cnc2c(N3CCN(Cc4ccc(Cl)cc4)CC3)ncnc21)c1nccs1
HC50 [1]: > 256 µg/mL

MIC (Candida albicans [2]): 64 µg/mL (≈ 144 µM)
MIC (Candida tropicalis [3]): 64 µg/mL (≈ 144 µM)
MIC (Candida parapsilosis): 128 µg/mL (≈ 288 µM)
MIC (Aspergillus fumigatus): 32 µg/mL (≈ 72 µM)
MIC (Candida albicans [4]): 8 µg/mL (≈ 18 µM)
SMILES: CCOC(=O)CN1CCN(c2ncnc3c2ncn3C/C(=N/OC)c2nccs2)CC1
HC50 [1]: > 256 µg/mL

MIC (Candida albicans [2]): 16 µg/mL (≈ 38.7 µM)
MIC (Candida tropicalis [3]): 32 µg/mL (≈ 77.4 µM)
MIC (Candida parapsilosis): 4 µg/mL (≈ 9.67 µM)
MIC (Aspergillus fumigatus): 128 µg/mL (≈ 310 µM)
MIC (Candida albicans [4]): 4 µg/mL (≈ 9.67 µM)
SMILES: CCCCCCN1CCN(c2ncnc3c2ncn3CC(=O)c2nccs2)CC1
HC50 [1]: > 256 µg/mL

MIC (Candida albicans [2]): 16 µg/mL (≈ 32.1 µM)
MIC (Candida tropicalis [3]): 8 µg/mL (≈ 16.1 µM)
MIC (Candida parapsilosis): 8 µg/mL (≈ 16.1 µM)
MIC (Aspergillus fumigatus): 16 µg/mL (≈ 32.1 µM)
MIC (Candida albicans [4]): 4 µg/mL (≈ 8.04 µM)
SMILES: CCCCCCCCCCCCN1CCN(c2ncnc3c2ncn3CC(=O)c2nccs2)CC1
HC50 [1]: > 256 µg/mL

MIC (Candida albicans [2]): 16 µg/mL (≈ 37.2 µM)
MIC (Candida tropicalis [3]): 64 µg/mL (≈ 149 µM)
MIC (Candida parapsilosis): 64 µg/mL (≈ 149 µM)
MIC (Aspergillus fumigatus): 16 µg/mL (≈ 37.2 µM)
MIC (Candida albicans [4]): 4 µg/mL (≈ 9.29 µM)
SMILES: CCOC(=O)CN1CCN(c2ncnc3c2ncn3C/C(=N/O)c2nccs2)CC1
HC50 [1]: > 256 µg/mL

MIC (Candida albicans [2]): 16 µg/mL (≈ 34 µM)
MIC (Candida tropicalis [3]): 8 µg/mL (≈ 17 µM)
MIC (Candida parapsilosis): 32 µg/mL (≈ 68 µM)
MIC (Aspergillus fumigatus): 32 µg/mL (≈ 68 µM)
MIC (Candida albicans [4]): 4 µg/mL (≈ 8.5 µM)
SMILES: CC(C)N(C(=O)CN1CCN(c2ncnc3c2ncn3CC(=O)c2nccs2)CC1)C(C)C
HC50 [1]: > 256 µg/mL
